PubChem BioAssay (NCI)
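A five-concentration, 48-hour dose response in 96-well plates underlies each endpoint, interpolated linearly between surrounding concentrations. The concentration for 50% growth inhibition is given as GI50. TGI: concentration producing complete growth inhibition.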

Experiments:
Test in all cases: NCI anticancer screen, dose series, 48 h
SK-MEL-2 melanoma = system: SK-MEL-2 melanoma
SK-MEL-28 melanoma = system: SK-MEL-28 melanoma
OVCAR-5 ovarian = system: OVCAR-5 ovarian
SR leukemia = system: SR leukemia
HCT-116 colon = system: HCT-116 colon
SF-539 CNS = system: SF-539 CNS
OVCAR-3 ovarian = system: OVCAR-3 ovarian
HOP-92 NSCLC = system: HOP-92 NSCLC
CAKI-1 renal = system: CAKI-1 renal
HCC-2998 colon = system: HCC-2998 colon

Row | SMILES | TGI (SK-MEL-2 melanoma) [µM] | TGI (SK-MEL-28 melanoma) [µM] | TGI (OVCAR-5 ovarian) [µM] | TGI (SR leukemia) [µM] | TGI (HCT-116 colon) [µM] | TGI (SF-539 CNS) [µM] | TGI (OVCAR-3 ovarian) [µM] | TGI (HOP-92 NSCLC) [µM] | TGI (CAKI-1 renal) [µM] | GI50 (SK-MEL-2 melanoma) [µM] | GI50 (SK-MEL-28 melanoma) [µM] | GI50 (HCT-116 colon) [µM] | GI50 (HCC-2998 colon) [µM] | TGI (HCC-2998 colon) [µM] | GI50 (SF-539 CNS) [µM] | GI50 (HOP-92 NSCLC) [µM] | GI50 (OVCAR-5 ovarian) [µM] | GI50 (OVCAR-3 ovarian) [µM] | GI50 (CAKI-1 renal) [µM]
1 | Cn1c(=O)c2[nH]c(SCc3ccccn3)nc2n(C)c1=S | > 100 | > 100 | > 100 | > 100 | > 100 | > 100 | > 100 | > 100 | > 100 |  |  |  |  |  |  |  |  |  | 
2 | COc1ccc(/C(COc2c(-c3ccccc3)oc3ccccc3c2=O)=N\O)cc1 | 45.5 | > 50 |  |  | > 50 | 27.9 |  | > 50 |  | 9.82 | 15 | 21.8 | 8.42 | 22.3 | 13.5 | > 50 |  |  | 
3 | Cn1c2ccccc2c2c(-c3ccccc3)[n+]3ccncc3nc21 | > 100 | > 100 | > 100 |  | > 100 | > 100 | > 100 | > 100 | > 100 | 55 | > 100 | > 100 | > 100 | > 100 | 48.3 | 96.6 | > 100 | > 100 | > 100
4 | COc1cc([N+](=O)[O-])cc2c3c(n(C)c12)[C@@]1(C)CCC2c4ccc(OCc5ccccc5)cc4CCC2C1C3 (some centres undefined) | > 100 | > 100 | > 100 |  | > 100 | > 100 | > 100 |  | > 100 | > 100 | > 100 | 78.5 | 47.9 | > 100 | 66.7 |  | > 100 | > 100 | 86.6
5 | Brc1cccc(C=NC23CC4CC(CC(C4)C2)C3)c1 | > 100 | > 100 | > 100 |  | > 100 | > 100 | > 100 | > 100 | > 100 |  |  |  |  | > 100 |  |  |  |  | 
6 | COc1ccc(C2=CC3CCC2C3)cc1 (centres undefined) | > 100 | > 100 | > 100 | > 100 | > 100 | > 100 | > 100 | > 100 | > 100 |  |  |  |  |  |  |  |  |  | 
7 | COc1ccc(/C=C/c2nccc3ccccc23)cc1OC | > 10 | > 10 | > 10 |  | > 10 | > 10 | > 10 | > 10 | > 10 |  |  |  |  | > 10 |  |  |  |  | 
8 | CC1=NN(C(=O)Nc2ccccc2)C(=O)C2CCC(=O)N12 (centres undefined) | > 100 | > 100 |  | > 100 | > 100 | > 100 | > 100 | > 100 | > 100 |  |  |  |  | > 100 |  |  |  |  | 
9 | NC(CCC(=O)NC(CSSCCCCS(=O)O)C(=O)NCC(=O)O)C(=O)O (centres undefined) | > 100 | > 100 | > 100 |  | > 100 | > 100 | > 100 |  | > 100 |  |  |  |  | > 100 |  |  |  |  | 
